In patent EP4583874B1, “MULTITARGET NUCLEAR RECEPTOR LIGANDS BASED ON 2-(4-(QUINOLIN-2-YLOXY)PHENOXY)PROPANOIC ACID AND 2-(4-(QUINOXALIN-2-YLOXY)PHENOXY)PROPANOIC ACID FOR THE TREATMENT OF METABOLIC AND LIVER DISEASES” (CHARLES UNIVERSITY, FACULTY OF PHARMACY IN HRADEC KRALOVE, priority 2022, dated 2024):

Tests used:
human PPARα = molecular target: T1, human PPARα (Homo sapiens, UniProt Q07869); assay: PPARα responsive luciferase reporter gene assay (pGAL4-PPARα / pGL5-UAS 9x) in HepG2 cells; type: cell-based; details: relative activation to fenofibrate 10 µM (100%), HepG2, 24 h, negative value indicates inverse agonism
T1 construct: DNA constructs encoding human LBD domains of human PPARα, PPARγ, of LXRα (pGAL4-PPARα, pGAL4-PPARγ, pGAL4-LXRα); expressed in transfected cells; host or cells: HepG2
T1 sequence (Q07869 239-466 limits assumed): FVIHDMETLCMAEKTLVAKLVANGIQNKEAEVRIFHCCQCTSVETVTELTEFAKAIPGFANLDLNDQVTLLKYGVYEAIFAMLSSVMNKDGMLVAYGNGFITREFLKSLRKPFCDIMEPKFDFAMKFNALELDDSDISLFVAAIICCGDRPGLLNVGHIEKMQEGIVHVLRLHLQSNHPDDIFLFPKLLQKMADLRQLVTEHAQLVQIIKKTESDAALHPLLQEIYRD
Source text: Bezafibrate, GW7647 and WY14643 are known PPARα ligands. […] GW3965 is known high-affinity LXRα ligand. […]
(§1) In HepG2 cells, luciferase gene reporter assays have been performed with the transiently transfected reporter gene luciferase construct with the UAS yeast binding site interacting with GAL4 protein (pGL5-UAS 9x, Promega). DNA constructs encoding human LBD domains of human PPARα, PPARγ, of LXRα (pGAL4-PPARα, pGAL4-PPARγ, pGAL4-LXRα) have been cotransfected with the reporter construct. For FXR, FXRE-luc construct with FXR response elements upstream of Firefly luciferase has been used together with an expression construct for human FXR for HepG2 cells transfection. HepG2 cells were then treated with compounds of the invention for 24 h.

human PPARγ = molecular target: T2, human PPARγ (Homo sapiens, UniProt P37231); assay: PPARγ luciferase reporter gene assay (pGAL4-PPARγ / pGL5-UAS 9x) in HepG2 cells; type: cell-based; details: HepG2, 24 h
T2 construct: DNA constructs encoding human LBD domains of human PPARα, PPARγ, of LXRα (pGAL4-PPARα, pGAL4-PPARγ, pGAL4-LXRα); expressed in transfected cells; host or cells: HepG2
T2 sequence (P37231 238-503 limits assumed): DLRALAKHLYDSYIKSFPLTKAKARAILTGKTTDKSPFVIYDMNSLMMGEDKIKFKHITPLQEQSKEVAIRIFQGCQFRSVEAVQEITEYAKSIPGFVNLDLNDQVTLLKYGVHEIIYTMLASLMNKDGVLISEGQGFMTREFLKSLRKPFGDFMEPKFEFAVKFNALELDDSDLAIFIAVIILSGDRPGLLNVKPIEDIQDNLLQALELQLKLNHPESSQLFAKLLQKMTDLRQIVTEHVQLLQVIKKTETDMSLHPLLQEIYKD

human FXR = molecular target: T3, human FXR (Homo sapiens, UniProt Q96RI1); assay: FXR responsive luciferase reporter gene assay (FXRE-luc + human FXR expression construct) in HepG2 cells; type: cell-based; details: HepG2, 24 h
T3 construct: expressed in transfected cells; host or cells: HepG2
T3 sequence (Q96RI1 1-486): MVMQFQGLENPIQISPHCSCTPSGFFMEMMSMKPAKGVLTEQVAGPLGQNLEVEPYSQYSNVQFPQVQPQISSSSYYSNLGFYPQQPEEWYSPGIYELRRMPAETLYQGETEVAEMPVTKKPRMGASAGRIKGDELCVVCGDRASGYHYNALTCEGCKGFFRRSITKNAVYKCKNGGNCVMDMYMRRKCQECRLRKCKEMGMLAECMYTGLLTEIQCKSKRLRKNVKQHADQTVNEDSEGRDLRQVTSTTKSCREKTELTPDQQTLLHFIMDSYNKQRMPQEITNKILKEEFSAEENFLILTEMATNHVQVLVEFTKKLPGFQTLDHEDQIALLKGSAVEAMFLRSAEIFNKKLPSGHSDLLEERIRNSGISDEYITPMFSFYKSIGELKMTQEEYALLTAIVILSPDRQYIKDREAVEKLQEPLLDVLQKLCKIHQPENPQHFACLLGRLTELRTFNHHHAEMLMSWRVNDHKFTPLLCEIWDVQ
Source text: as §1

TGR5 = molecular target: T4, TGR5 (Homo sapiens, UniProt Q8TDU6); assay: TGR5 luciferase reporter assay; type: cell-based; details: relative activation to LCA 10 µM (100%), negative value indicates inverse agonism
T4 sequence (Q8TDU6 1-330): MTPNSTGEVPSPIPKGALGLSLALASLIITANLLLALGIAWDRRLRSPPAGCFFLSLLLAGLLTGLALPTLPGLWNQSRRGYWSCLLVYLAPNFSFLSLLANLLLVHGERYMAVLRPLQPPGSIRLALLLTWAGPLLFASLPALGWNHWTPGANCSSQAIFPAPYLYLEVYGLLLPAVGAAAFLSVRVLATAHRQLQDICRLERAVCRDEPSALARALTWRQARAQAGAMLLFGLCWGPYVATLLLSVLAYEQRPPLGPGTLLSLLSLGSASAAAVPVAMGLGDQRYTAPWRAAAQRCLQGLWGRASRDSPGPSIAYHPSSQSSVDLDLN

human LXRα = molecular target: T5, human LXRα (Homo sapiens, UniProt Q13133); assay: LXRα luciferase reporter gene assay, inhibition of activation by GW3965 (pGAL4-LXRα / pGL5-UAS 9x) in HepG2 cells; type: cell-based; details: HepG2, 24 h; read-out: LXRα antagonism
T5 construct: DNA constructs encoding human LBD domains of human PPARα, PPARγ, of LXRα (pGAL4-PPARα, pGAL4-PPARγ, pGAL4-LXRα); expressed in transfected cells; host or cells: HepG2
T5 sequence (Q13133 209-447 limits assumed): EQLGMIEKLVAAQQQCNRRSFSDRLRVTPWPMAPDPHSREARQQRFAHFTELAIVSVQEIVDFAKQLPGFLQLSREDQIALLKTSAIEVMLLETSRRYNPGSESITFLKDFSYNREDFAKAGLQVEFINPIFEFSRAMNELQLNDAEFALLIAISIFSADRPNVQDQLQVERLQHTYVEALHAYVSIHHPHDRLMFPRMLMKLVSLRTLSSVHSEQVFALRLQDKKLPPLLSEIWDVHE
Procedure: Bezafibrate, GW7647 and WY14643 are known PPARα ligands. […] GW3965 is known high-affinity LXRα ligand.
Inverse agonistic/antagonistic activities of tested compounds to LXRα receptor activated by the LXRα agonist GW3965(10 µM). […] Negative value indicates inverse agonism.
as §1

C57BL/6J mice = assay: Pilot study in mice, liver mRNA expression by RT-qPCR; type: in vivo; details: 3x 30 mg/kg p.o. gavage, liver 24 h after last application, vs vehicle
Procedure: Compounds 35 and 37 have been applied three times after 24 h (3x 30 mg/kg) via p.o. gavage to wild-type C57BL/6J mice. After 24 h from the last application, mice were sacrificed, and live samples collected on dry ice for total RNA isolation. RT-qPCR experiments have been performed with TaqMan probes and expression has been quantified using a reference gene (beta-actin and Gapdh) and delta-delta method. Data represents fold up or downregulation in mRNA expression for tested genes related to the expression in vehicle-treated control animals. * - statistically significant (p<0.05) up- or down- regulation in animals treated with tested compounds (n=4).
In the pilot study, compounds of the invention 37 and 35 were applied by per os probe (gavage) to male mice of age 15 weeks (n=4 per group) three times (3 x 30 mg/kg b.w.) in 1%PEG300/methylcellulose solution (compounds of EXAMPLE 37or 35). Livers were sampled 24 hours after application into liquid nitrogen for total RNA insolation and for qRT-PCR analysis (Quantstudio 7 HT Fast Real-Time PCR System).
(§2) Expressions of NR target genes mRNAs in livers of mice or in 3D cultured (spheroids) primary human hepatocytes have been performed using TaqMan probes-based RT-qPCR after isolation of total RNA by Trizol® (ThermoFischer Scientific) reagent and reverse transcription synthesis of cDNA in Quant Studio cycler. Real-time qPCR TaqMan probes have been purchased prom ThermoFisher scientific (Cat. No. 4351372 and 433118). Delta-delta method and Gapdh or TATA-box binding protein (TBP) housekeeping genes were used for relative quantification. Data are expressed as fold up-/down-regulation compared to vehicle-treated samples/mice.

[1] = test system: 3D primary human hepatocyte spheroids; assay: Gene expression in 3D primary human hepatocyte spheroids by RT-qPCR; type: cell-based; details: 3D spheroids of primary human hepatocytes (JEL donor), 72 hours
Source text: After the interval, spheroid have been subjected to RNA isolation and RT-qPCR was used to analyse mRNA expression using specific TaqMan probes. Expression has been quantified using a reference gene (TBP) and delta-delta method. Data represents fold up or downregulation in mRNA expression for tested genes (column) related to the expression in vehicle-treated controls (equal to 1, white color).
Human hepatocellular carcinoma HepG2 cell line was purchased from the European Collection of Cell Cultures (ECACC, Salisbury, UK). Primary human hepatocytes (donor) have been purchased from BioIV, Royston, UK.
as §2

C[C@@H](Oc1ccc(Oc2ccc3ccc(Cl)cc3n2)cc1)C(=O)O [compound 35, (R)-2-(4-((7-Chloroquinolin-2-yl)oxy)phenoxy)propanoic acid]
Emax at 10 µM (human PPARα): 117% | Emax at 10 µM (human PPARγ): 4% | Emax at 10 µM (human FXR): 4% | Emax at 10 µM (TGR5): 5% | inhibition at 10 µM (human LXRα): 63% | Cyp7a1 expression in the mouse liver (C57BL/6J mice): down-regulates | Fasn gene expression in the mouse liver (C57BL/6J mice): down-regulate | Pck1 gene expression in the mouse liver (C57BL/6J mice): down-regulate | cholesterol efflux transporters Abcg5/8 expression in the mouse liver (C57BL/6J mice): down-regulates | key protein involved in fatty acid (beta) oxidation, mRNA expression in the mouse liver (C57BL/6J mice): up-regulate | effect on some critical genes involved in fatty acid oxidation in comparison with fenofibrate [1]: augmented effect | genes involved in fatty acid catabolism ([1]; combined effect of obeticholic acid and TFCA): suitable upregulation

C[C@@H](Oc1ccc(Oc2ccc3c(Br)cccc3n2)cc1)C(=O)O [compound 40, (R)-2-(4-((5-Bromoquinolin-2-yl)oxy)phenoxy)propanoic acid]
Emax at 10 µM (human PPARα): 0% | Emax at 10 µM (human PPARγ): 1% | Emax at 10 µM (human FXR): 89% | Emax at 10 µM (TGR5): 16% | inhibition at 10 µM (human LXRα): 48%
